The source of these data is ChEMBL document CHEMBL1201862, “PubChem BioAssay data set” (2004).

Some test systems named below: SW-620; Malme-3M; KM12; ACHN; SR; BT-549; HCT-15; MDA-N; OVCAR-5; CCRF-CEM; TK-10; DU-145; NCI-H522; PC-3; OVCAR-4.
What all share (assay): NCI-60 cell line screen, 48 h

“And” between values parts separate entries of the source, which are not always exact repeats. Identical values can stand only once.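 A five-concentration, 48-hour dose response in 96-well plates underlies each endpoint, interpolated linearly between surrounding concentrations. GI50 is the concentration that inhibits growth by half.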 The source made the active and inactive calls. Cut-off read from the data, not from the text of the source: active = GI50 up to about 1.1 µM and inactive = higher.

On to `Cc1cc(Oc2cnc(=O)[nH]c2)cs1`, for which the GI50 in the assay with SW-620, in the assay on Malme-3M, in the assay on KM12, with ACHN, in the assay with SR and in the assay on BT-549 was > 100 µM (inactive) throughout. Moreover, the GI50 in the assay on HCT-15 was over 100 µM; with MDA-N it was > 100 µM (inactive); with OVCAR-5, > 100 µM (inactive); in the assay on CCRF-CEM it was > 100 µM (inactive); in the assay on TK-10 it was > 100 µM (inactive); in the assay on DU-145, > 100 µM (inactive). For the same molecule, the GI50 in the assay on NCI-H522 and in the assay with PC-3 was > 100 µM (inactive) throughout.

Consider `CNC(=S)N/N=C(\C)c1cc(OC)c(OC)cc1O`, for which the GI50 in the assay with SW-620, in the assay on Malme-3M, with KM12, in the assay with ACHN, with SR and with BT-549 was > 100 µM (inactive) throughout. For the same molecule, the GI50 is over 100 µM in the assay on HCT-15; > 100 µM (inactive) in the assay on MDA-N; > 100 µM (inactive) with OVCAR-5; > 100 µM (inactive) in the assay on CCRF-CEM; > 100 µM (inactive) in the assay on TK-10; > 100 µM (inactive) with DU-145. Besides, the GI50 with PC-3 is > 100 µM (inactive).

Consider `COc1ccc(-c2nc(SCC(=O)N/N=C/c3ccc([N+](=O)[O-])cc3)[nH]c2-c2ccc(OC)cc2)cc1`, for which the GI50 is 12.6 µM (inactive) in the assay with SW-620; 17.5 µM (inactive) in the assay with Malme-3M; 4.86 µM (inactive) in the assay with KM12; 39.4 µM (inactive) with OVCAR-4; 20.1 µM (inactive) with ACHN; 19.1 µM (inactive) with BT-549. Also, the GI50 in the assay with HCT-15 was 8.55 µM; in the assay with MDA-N, 3.16 µM (inactive); in the assay on OVCAR-5 it was 16.2 µM (inactive); in the assay on CCRF-CEM, 3.18 µM (inactive); with TK-10, 22.3 µM (inactive); in the assay on DU-145, 28 µM (inactive). In addition, the GI50 in the assay on NCI-H522 was 6.95 µM (inactive); with PC-3 it was 6.49 µM (inactive).

With `COc1ccc(CC(COS(=O)(=O)c2ccc(C)cc2)NS(=O)(=O)c2ccc(C)cc2)cc1` (configuration not stated), the GI50 in the assay on SW-620 is 10.9 µM (inactive); in the assay on Malme-3M it was 10.7 µM (inactive); in the assay on KM12 it was 16.9 µM (inactive); in the assay with OVCAR-4, 20.7 µM (inactive); in the assay with ACHN, 12.3 µM (inactive); in the assay with BT-549 it was 5.71 µM (inactive). The GI50 is 14.2 µM in the assay with HCT-15; 19.6 µM (inactive) in the assay with MDA-N; 17.5 µM (inactive) in the assay with OVCAR-5; 17.4 µM (inactive) with TK-10; 10.8 µM (inactive) with DU-145; 7.01 µM (inactive) with NCI-H522. Further, the GI50 in the assay with PC-3 is 14.8 µM (inactive).

As to `CCOC(=O)CCSS(=O)(=O)c1ccccc1`, the GI50 in the assay with SW-620 was 22.2 µM (inactive); in the assay with KM12, > 100 µM (inactive); in the assay with OVCAR-4, > 100 µM (inactive); in the assay on ACHN, > 100 µM (inactive); in the assay with BT-549, > 100 µM (inactive); with HCT-15 it was 53.2 µM. The GI50 was > 100 µM (inactive) in the assay on MDA-N; 92.9 µM (inactive) in the assay on OVCAR-5; 28.4 µM (inactive) in the assay on CCRF-CEM; > 100 µM (inactive) in the assay on TK-10; > 100 µM (inactive) in the assay on DU-145; > 100 µM (inactive) in the assay on PC-3.

Take `CCOC(=O)c1c(CN2CCOCC2)n(Cc2ccccc2)c2c1cc(O)c1nc(C)c(C)nc12`: the GI50 is > 100 µM (inactive) in the assay with SW-620; 45.8 µM (inactive) in the assay with Malme-3M; > 100 µM (inactive) in the assay on KM12; 47.8 µM (inactive) with OVCAR-4; 28.6 µM (inactive) with ACHN; 44 µM (inactive) with SR. In addition, the GI50 was 11.5 µM (inactive) with BT-549; 57 µM with HCT-15; 72.8 µM (inactive) with MDA-N; > 100 µM (inactive) in the assay with OVCAR-5; > 100 µM (inactive) in the assay on CCRF-CEM; 30.3 µM (inactive) in the assay on TK-10. Besides, the figures for the GI50 with DU-145 and in the assay on PC-3 were 78.2 µM (inactive) and 17.5 µM (inactive), respectively.

As for `CN(C)C(=S)C(Cl)(c1ccccc1)c1ccccc1`, the GI50 in the assay on SW-620 is 34 µM (inactive); in the assay on Malme-3M it was > 100 µM (inactive); in the assay on KM12, 46.3 µM (inactive); in the assay on OVCAR-4 it was 35.4 µM (inactive); with ACHN, 90.2 µM (inactive); with BT-549 it was > 100 µM (inactive). Moreover, the GI50 in the assay with HCT-15 is 63 µM; in the assay with MDA-N, 47.6 µM (inactive); in the assay with OVCAR-5, > 100 µM (inactive); in the assay on CCRF-CEM it was 27.1 µM (inactive); in the assay on TK-10, > 100 µM (inactive); in the assay on DU-145, 40.6 µM (inactive). The GI50 in the assay on NCI-H522 was 33.3 µM (inactive); in the assay on PC-3, 35.6 µM (inactive).

On to `O=C(O)C1CCCN1Cc1ccc2c(c1)OCO2` (configuration not stated), for which the GI50 in the assay on SW-620 is > 100 µM (inactive); in the assay on Malme-3M it was > 100 µM (inactive); with KM12 it was > 100 µM (inactive); in the assay with OVCAR-4 it was > 100 µM (inactive); in the assay with ACHN, > 100 µM (inactive); in the assay on SR it was 14.5 µM (inactive). In addition, the GI50 in the assay on BT-549 was > 100 µM (inactive); with HCT-15, over 100 µM; in the assay with MDA-N, > 100 µM (inactive); in the assay with OVCAR-5 it was > 100 µM (inactive); with TK-10 it was > 100 µM (inactive); in the assay with DU-145, > 100 µM (inactive). Moreover, the GI50 in the assay on NCI-H522 and with PC-3 was > 100 µM (inactive) each time.

Regarding `CC(=O)O[C@H]1CC2C(C3CC[C@H](C(C)CCC(N)=O)[C@]31C)[C@H](OC(C)=O)C[C@@H]1CC3(CC[C@]21C)OOC1(CCC(C)CC1)OO3` (some centres not stated), the GI50 with SW-620 was 3.02 µM (inactive) and 2.11 µM (inactive); in the assay with Malme-3M, 2.12 µM (inactive) and 2.53 µM (inactive); with KM12 it was 1.98 µM (inactive) and 1.83 µM (inactive); in the assay with OVCAR-4, 1.32 µM (inactive) and 1.48 µM (inactive); in the assay on ACHN, 1.8 µM (inactive); in the assay on SR, 867 nM (active) and 1.47 µM (inactive). The GI50 with BT-549 was 2.11 µM (inactive) and 1.72 µM (inactive); in the assay on HCT-15, 1.93 µM; with MDA-N it was 1.87 µM (inactive) and 2.07 µM (inactive); with OVCAR-5, 2.09 µM (inactive) and 2.04 µM (inactive); with CCRF-CEM, 1.52 µM (inactive); in the assay on TK-10 it was 1.95 µM (inactive) and 2.72 µM (inactive). Besides, the GI50 in the assay on NCI-H522 is 1.4 µM (inactive) and 1.71 µM (inactive); in the assay with PC-3, 2.69 µM (inactive).

With `CCC1CCN=C(Cn2cc(C)c(=O)[nH]c2=O)N1` (configuration not stated), the GI50 with SW-620 was > 100 µM (inactive); in the assay with Malme-3M, > 100 µM (inactive); in the assay on ACHN, > 100 µM (inactive); in the assay on BT-549, > 100 µM (inactive); in the assay on HCT-15, over 100 µM; in the assay on MDA-N, > 100 µM (inactive). Besides, the GI50 with OVCAR-5 was > 100 µM (inactive); with CCRF-CEM, 0.201 µM (active); in the assay with TK-10, > 100 µM (inactive); in the assay with DU-145 it was > 100 µM (inactive); with NCI-H522, > 100 µM (inactive); with PC-3, > 100 µM (inactive).

As for `Nc1nc(Br)nc2ncn(C3CC(O)C(CO)O3)c12` (configuration not stated), the GI50 was > 24.8 µM (inactive) with SW-620; > 100 µM (inactive) in the assay on Malme-3M; > 100 µM (inactive) with KM12; > 100 µM (inactive) in the assay on OVCAR-4; 10.7 µM (inactive) in the assay with ACHN; 46 µM (inactive) with BT-549. The GI50 in the assay on HCT-15 is over 100 µM; in the assay on MDA-N, > 68.7 µM (inactive); with OVCAR-5, > 100 µM (inactive); with CCRF-CEM it was < 0.01 µM (active); with TK-10, > 100 µM (inactive); in the assay on DU-145, > 100 µM (inactive). The GI50 in the assay on NCI-H522 and in the assay on PC-3 was > 100 µM (inactive) throughout.

With `Oc1ccc(-c2nc(-c3ccc4ccccc4n3)c(-c3ccc(F)cc3)[nH]2)cc1`, the GI50 in the assay with SW-620 is 14.3 µM (inactive); in the assay on Malme-3M, 13.7 µM (inactive); in the assay with KM12, 5.26 µM (inactive); in the assay on OVCAR-4, 11.2 µM (inactive); in the assay on ACHN it was 12.3 µM (inactive); in the assay with SR it was 6.25 µM (inactive). The GI50 is 17.7 µM (inactive) with BT-549; 10.7 µM in the assay with HCT-15; 11.9 µM (inactive) in the assay with MDA-N; 15.9 µM (inactive) in the assay with OVCAR-5; 15.1 µM (inactive) in the assay on CCRF-CEM; 13.2 µM (inactive) with TK-10. Besides, the results for the GI50 in the assay with DU-145 and in the assay with PC-3 were 15.5 µM (inactive) and 9.08 µM (inactive), respectively.

Take `N#C/N=C1/c2ccccc2/C(=N/C#N)c2cc(CO)ccc21`: the GI50 is 25.6 µM (inactive) in the assay on SW-620; 31.8 µM (inactive) in the assay on KM12; 48.1 µM (inactive) in the assay with OVCAR-4; 24.7 µM (inactive) in the assay with ACHN; 17 µM (inactive) in the assay with SR; 18 µM (inactive) in the assay on BT-549. Besides, the GI50 is 27.2 µM with HCT-15; 36.6 µM (inactive) in the assay on MDA-N; 50.9 µM (inactive) in the assay on OVCAR-5; 27.3 µM (inactive) in the assay with TK-10; 26 µM (inactive) in the assay on DU-145; 39 µM (inactive) in the assay with NCI-H522. In the assay with PC-3, the GI50 is 33.7 µM (inactive).

With `CN(C(=O)c1ccc(Cl)cc1)C(=S)N1CCN(c2ccccc2)CC1`, the GI50 is > 100 µM (inactive) with SW-620; > 100 µM (inactive) in the assay on Malme-3M; 53.2 µM (inactive) in the assay on KM12; > 100 µM (inactive) in the assay with OVCAR-4; > 100 µM (inactive) in the assay with ACHN; 35.2 µM (inactive) in the assay on SR. Also, the GI50 is > 100 µM (inactive) with BT-549; 87.5 µM with HCT-15; > 100 µM (inactive) in the assay on MDA-N; > 100 µM (inactive) with OVCAR-5; 56.6 µM (inactive) with CCRF-CEM; > 100 µM (inactive) in the assay with TK-10. Also, the GI50 was > 100 µM (inactive) in the assay with DU-145 and 51.5 µM (inactive) with NCI-H522.

For the molecule `CCCSc1ccc2[nH]c(N3C(=O)/C(=C/c4ccco4)N=C3c3ccccc3)cc2c1`, the GI50 is 20.8 µM (inactive) in the assay with SW-620; > 50 µM (inactive) in the assay on Malme-3M; 17.7 µM (inactive) in the assay with KM12; 38.8 µM (inactive) in the assay with ACHN; 7.26 µM (inactive) with SR; 32.7 µM (inactive) in the assay on BT-549. In addition, the GI50 is 19.8 µM with HCT-15; 6 µM (inactive) in the assay with MDA-N; > 50 µM (inactive) in the assay on OVCAR-5; 19.3 µM (inactive) with CCRF-CEM; > 50 µM (inactive) in the assay with DU-145; 13.2 µM (inactive) in the assay with NCI-H522. The GI50 in the assay with PC-3 is 21.3 µM (inactive).
